Reference: patent US20050186617A1, “Gene screening method using nuclear receptor” (Chugai Seiyaku Kabushiki Kaisha, a Japanese corporation, priority 1997, published 2005)

How the values were obtained:
1α (OH)-ase gene = test: Northern blot of CYP1AD (1α(OH)-ase) gene expression in mice given excess 1α,25(OH)2D3; type: in vivo; conditions: 50 ng/mouse
Description: The tissue distribution of CYP1AD transcripts in 7-week-old normal and VDR−/− mice was examined. Poly(A)^+ RNA was extracted from brain, lung, heart, liver, spleen, kidney, small intestine, skeletal muscle, skin, and bone, and analyzed by northern blot technique using cDNA of CYP1AD and β-actin as probes (K. Takeyama et al., Biochem. Biophys. Res. Commun. 222, 395 (1996); H. Mano et al., J. Biol. Chem. 269, 1591 (1994)). As the result, the transcript of CYP1AD was detected as a single band in the kidney. The size of the transcript (2.4 kbp) is identical to that of cloned cDNA (FIG. 10). Except for kidney, in, 1α (OH)-ase activity has been reported in other tissues than kidney (A. W. Norman, J. Roth, L. Orchi, Endocr. Rev. 3, 331 (1982); H. F. DeLuca, Adv. Exp. Med. Biol. 196, 361 (1986); M. R. Walters, Endocr. Rev 13, 719 (1992); G. A. Howard, R. T. Turner, D. J. Sherrard, D. J. Baylink, J. Biol. Chem. 256, 7738 (1981); T. K. Gray, G. E. Lester, R. S. Lorenc, Science 204, 1311 (1979)). However, the transcript of 1α (OH)-ase was not detected in tissues other than kidney in this experiment.
The relative amount of the hydroxylase gene standardized with the β-actin gene transcripts was measured in at least 5 mice for each group (FIG. 12).

GAL4-VDR(DEF) = test: CAT reporter assay in COS-1 cells co-transformed with GAL4-VDR(DEF) and 17M2-G-CAT; type: cell-based

## C=C1/C(=C\C=C2/CCC[C@]3(C)[C@@H]([C@H](C)CCCC(C)(C)O)CC[C@@H]23)C[C@@H](O)C[C@@H]1O [1α,25(OH)2D3, 1α,25-Dihydroxyvitamin D3]
1α (OH)-ase gene; 3- and 7-week-old VDR−/− mice
  expression of the 1α (OH)-ase gene: the inhibition did not occurred
1α (OH)-ase gene; VDR+/+ and VDR+/− mice
  expression of the 1α (OH)-ase gene: significantly inhibited

## C=C1CC[C@H](O)C/C1=C/C=C1\CCC[C@]2(C)[C@@H]([C@H](C)CCCC(C)(C)O)CC[C@@H]12 [25(OH)D3, 25-hydroxyvitamin D3]
GAL4-VDR(DEF); CYP1AD expressed, with ADX and ADR expression vectors
  activation of the CAT reporter gene: activated the CAT reporter gene
GAL4-VDR(DEF); in the absence of ADX or ADR
  activation of the CAT reporter gene: did not significantly activate the reporter gene
